# Data published in US20220133738A1, “GENOTYPE AND DOSE-DEPENDENT RESPONSE TO AN ASBTI IN PATIENTS WITH BILE SALT EXPORT PUMP DEFICIENCY” (MIRUM PHARMACEUTICALS, INC., priority 2019, published 2022).
# Several values for one entry are separate records, joined by “and”; a condition that tells them apart may be missing. Identical values can stand only once.
# Experiments:
# [1] = tested on: children with Alagille syndrome (ALGS); assay: ICONIC phase 2b randomized placebo-controlled drug-withdrawal study with long-term extension of maralixibat in Alagille syndrome; settings: for C4, mean: baseline 7.4; for Serum cholesterol, mean: baseline 414.3; for ItchRO(Obs) Weekly Morning Average Score, Average Change from Baseline: week 48
# Protocol: Children aged 1-18 years with a diagnosis of ALGS and evidence of cholestasis were eligible to enroll in the ICONIC clinical study, see Tables 12-14. During a long-term extension, participants with sBA levels above the upper limit of normal and/or an ITCHRO(OBS) score >1.5 were eligible for the 400 μg/kg BID dose (all participants received the 400 μg/kg BID dose). Inclusion criteria for the ICONIC study included having cholestasis, which was defined as at least one of 1) sBA concentration (total sBA) >3× the upper limit of normal, 2) serum conjugated bilirubin concentration >1 mg/dL, 3) fat-soluble vitamin deficiency not otherwise explained, 4) serum gamma-glutamyl transferase concentration >3× the upper limit of normal, and 3) intractable pruritus explainable only by liver disease. Inclusion criteria also included having significant pruritus, which was defined as an average daily score of >2 on the ITCHRO(OBS) scale for 2 consecutive weeks (0=no pruritus; 4=most severe pruritus). Exclusion criteria included having surgically disrupted enterohepatic circulation, a liver transplant, decompensated cirrhosis, or having any liver disease other than ALGS.
# sBA responders were defined as those patients achieving ≥50% reduction from baseline in sBA at week 12 or 18. ITCHRO responders were defined as those patients achieving at least a 1-point reduction from Baseline in weekly morning ITCHRO(OBS) score at week 12 or 18.
# In the open label extension, the effect of higher doses was explored by increasing dosage to a maximum of 400 μg/kg BID in eligible participants.
# Efficacy assessments were based on changes from baseline in sBA concentration, weekly average ITCHRO(OBS) scores (0, none; 4, most severe), CSS score (0, none; 4 most severe), and Clinician Xanthoma Scale score (0, none; 4, disabling). […] During the long-term extension, efficacy assessments were conducted every 12 weeks.
# sBA were measured using a fully validated liquid chromatography-electrospray ionization-mass electrospray (LC-ESI-MS) method using stable-isotope dilution analysis to measure serum concentrations of principal bile acids (cholic, chenodeoxycholic, ursodeoxycholic, deoxycholic acid, lithocholic, and their corresponding glycine and taurine conjugates). […] Calibration standards of individual bile acids were in the range of 50-25,000 ng/mL and Quality Control samples were prepared at concentrations of 100, 500, 1000, 2500, and 20000 ng/mL. The intra- and inter-assay imprecision of the method for individual bile acids measured was within the accepted GLP quality assurance guidelines of <15% coefficient of variance for these QC samples. The lower limit of quantification of the assay was set at 100 ng/mL and the imprecision at this concentration was <20%. The limit of detection of the assay was 5 ng/mL. Total sBA is represented by the sum of the individual bile acid species measured.
# [2] = tested on: children with progressive familial intrahepatic cholestasis (PFIC); assay: INDIGO phase 2 open-label efficacy and safety study of maralixibat in children with PFIC; assay type: in vivo, human
# [3] = Withdrawal - Week 22, maralixibat group
# [4] = individual subjects, one line per Subject ID of Table 18
# [5] = individual subjects, one line per Subject ID of Table 19
# [6] = sBA Normalization (<8.5 μmol/L)
smiles,measurement,setting,value
CCCCC1(CCCC)CS(=O)(=O)c2ccc(N(C)C)cc2[C@@H](c2ccc(OCc3ccc(C[N+]45CCN(CC4)CC5)cc3)cc2)[C@H]1O [maralixibat],"sBA, pruritus, and growth after the higher daily dose",[1]; 400 μg/kg BID relative to 400 μg/kg QD,further improvements
same,weight Z-scores,"[1]; 400 μg/kg BID versus 400 μg/kg QD, FIGS. 35-36",dose-dependent increase
same,"Height Z-score, increase from baseline","[1]; ICONIC participants, FIGS. 33-34, SE 0.1",0.5
same,"ItchRO (Obs) responders, Decrease from baseline ≥1",[1]; Open-label Week 18,67.7%
same,"ItchRO (Obs) responders, Decrease from baseline ≥1.25",[1]; Open-label Week 18,58.1%
same,"ItchRO (Obs) responders, Decrease from baseline ≥1.5",[1]; Open-label Week 18,51.6%
same,"ItchRO (Obs) responders, Decrease from baseline ≥1",[1]; Open-label Week 48,72.4%
same,"ItchRO (Obs) responders, Decrease from baseline ≥1.25",[1]; Open-label Week 48,58.6%
same,"ItchRO (Obs) responders, Decrease from baseline ≥1.5",[1]; Open-label Week 48,51.7%
same,"C4, mean","[1]; Week 48, n = 15",20.4 ng/mL
same,"Serum cholesterol, mean","[1]; Week 48, n = 15",340.3 mg/dL
same,"C4, mean","[1]; Week 191, n = 15",30.4 ng/mL
same,"Serum cholesterol, mean","[1]; Week 191, n = 15",277.5 mg/dL
same,"ItchRO (Obs) responders, Decrease from baseline ≥1",[1]; [3],53.8%
same,"ItchRO (Obs) responders, Decrease from baseline ≥1.25",[1]; [3],46.2%
same,"ItchRO (Obs) responders, Decrease from baseline ≥1.5",[1]; [3],23.1%
same,study days across participants with minimal or no pruritus (ITCHRO(OBS)≤1),[1]; after 98 weeks,over 89%
same,Clinician xanthoma scale scores,[1]; all participants by week 48 (p<0.01),improved significantly
same,"sBA levels, reduction from baseline","[1]; at 191 weeks, long-term extension",about 57%
same,"ITCHRO(OBS) score, mean change from baseline","[1]; at 191 weeks, SE 0.2",−2.5
same,"CSS score, mean reduction","[1]; at 191 weeks, SE 0.4",2.4 points
same,ITCHRO(OBS) final score,[1]; at 193 weeks,about 0.33
same,"ITCHRO(OBS) score, mean reduction",[1]; at 193 weeks,over 2 points
same,"CSS scores, average decrease","[1]; by week 48, all participants",over 1.5 points
same,"Clinician Xanthoma Score, reduction from baseline","[1]; by week 191, SE 0.3",0.7 points
same,"ITCHRO(OBS) scores, average decrease relative to baseline",[1]; by week 193,over 1.5 points
same,PedsQL Multidimensional Fatigue Scale scores,[1]; core study and extension (p<0.01),Improvements
same,tolerability,"[1]; core study and extension, over three years",well tolerated
same,tolerability,"[1]; doses up, treatment duration up to 4 years",generally well tolerated
same,"sBA concentration, decrease","[1]; first 18 weeks, 400 μg/kg QD",31%
same,"ITCHRO(OBS) scores, mean change from baseline","[1]; first 18 weeks, 400 μg/kg QD, SE 0.2",−1.7
same,Change in ItchRO from Baseline to Week 48 (ITCHRO(OBS) weekly morning average score),[1]; [4],−0.12 and 0.49 and −0.45 and 1.29 and −3.86 and 0.00 and −2.57 and −0.86 (2×) and −0.71 (2×) and −0.00 (2×) and −0.29 and −0.67 and −0.14 and −0.03 and −3.29 (2×) and −3.43 and −2.50 and −2.71 (2×) and −3.50 and −2.29 and −0.17 and −0.43 and −0.83
same,"Serum Bile Acid, Change from Baseline to Week 48",[1]; [4],−56.4 μmol/L and −166.3 μmol/L and −281.4 μmol/L and 166.4 μmol/L and −121.1 μmol/L and 4.3 μmol/L (2×) and −251.0 μmol/L and 3.3 μmol/L and −27.3 μmol/L and −155.5 μmol/L and −240.2 μmol/L and 9.0 μmol/L and 143.1 μmol/L and −112.2 μmol/L and 16.4 μmol/L and −10.9 μmol/L and −16.9 μmol/L and 54.5 μmol/L and −620.4 μmol/L and −23.9 μmol/L and −377.3 μmol/L and −205.9 μmol/L and −270.4 μmol/L and 25.5 μmol/L and −203.6 μmol/L and −96.4 μmol/L and −33.9 μmol/L
same,"Serum Bile Acid, Week 48",[1]; [4],22.9 µmol/L and 131.8 µmol/L and 98.5 µmol/L and 578.1 µmol/L and 20.8 µmol/L and 333.0 µmol/L and 119.6 µmol/L and 117.7 µmol/L and 492.6 µmol/L and 427.9 µmol/L and 199.8 µmol/L and 29.2 µmol/L and 891.6 µmol/L and 163.4 µmol/L and 60.2 µmol/L and 12.0 µmol/L and 23.6 µmol/L and 126.1 µmol/L and 37.0 µmol/L and 7.0 µmol/L and 101.9 µmol/L and 293.3 µmol/L and 65.0 µmol/L and 110.9 µmol/L and 35.8 µmol/L and 208.0 µmol/L and 55.8 µmol/L and 15.6 µmol/L
same,"ItchRO(Obs) Weekly Morning Average Score, Change from Baseline to Week 48",[1]; [5],−0.12 and 0.49 and −0.45 and 1.29 and −3.86 and 0.00 and −2.57 and −0.86 (2×) and −0.71 (2×) and −0.00 (2×) and −0.29 and −0.67 and −0.14 and −0.03 and −3.29 (2×) and −3.43 and −2.50 and −2.71 (2×) and −3.50 and −2.29 and −0.17 and −0.43 and −0.83
same,"ItchRO(Obs) Weekly Morning Average Score, Week 48",[1]; [5],2.71 and 3.20 and 1.83 and 3.71 and 0.14 and 1.86 and 0.71 and 1.14 (2×) and 0.29 (2×) and 2.00 (2×) and 1.71 (2×) and 1.00 and 1.40 and 0.00 (7×) and 1.43 and 1.57 and 3.50 and 2.17
same,"sBA levels, least squares mean difference maralixibat vs placebo","[1]; randomized withdrawal (week 18-22), SE 48.0",−114.0
same,"ITCHRO(OBS), LS mean difference maralixibat vs placebo","[1]; randomized withdrawal, SE 0.3",−1.5
same,"ItchRO(Obs) Weekly Morning Average Score, Week 48 Average Score",[1]; [6],0.00
same,"participants meeting sBA Response Definition, Week 48 (N = 28), %",[1]; [6],(3.6%)
same,"ItchRO(Obs) Weekly Morning Average Score, Average Change from Baseline",[1]; [6],−3.50
same,"ItchRO(Obs) Weekly Morning Average Score, Week 48 Average Score",[1]; sBA ≥50% Reduction,1.07
same,"participants meeting sBA Response Definition, Week 48 (N = 28), %",[1]; sBA ≥50% Reduction,(46.4%)
same,"ItchRO(Obs) Weekly Morning Average Score, Average Change from Baseline",[1]; sBA ≥50% Reduction,−1.86
same,"ItchRO(Obs) Weekly Morning Average Score, Week 48 Average Score",[1]; sBA ≥60% Reduction,0.82
same,"participants meeting sBA Response Definition, Week 48 (N = 28), %",[1]; sBA ≥60% Reduction,(39.3%)
same,"ItchRO(Obs) Weekly Morning Average Score, Average Change from Baseline",[1]; sBA ≥60% Reduction,−2.12
same,"ItchRO(Obs) Weekly Morning Average Score, Week 48 Average Score",[1]; sBA ≥70% Reduction,0.62
same,"participants meeting sBA Response Definition, Week 48 (N = 28), %",[1]; sBA ≥70% Reduction,(28.6%)
same,"ItchRO(Obs) Weekly Morning Average Score, Average Change from Baseline",[1]; sBA ≥70% Reduction,−2.31
same,"ItchRO(Obs) Weekly Morning Average Score, Week 48 Average Score",[1]; sBA ≥80% Reduction,0.11
same,"participants meeting sBA Response Definition, Week 48 (N = 28), %",[1]; sBA ≥80% Reduction,(14.3%)
same,"ItchRO(Obs) Weekly Morning Average Score, Average Change from Baseline",[1]; sBA ≥80% Reduction,−2.79
same,"ItchRO(Obs) Weekly Morning Average Score, Week 48 Average Score",[1]; sBA ≥90% Reduction,0.00
same,"participants meeting sBA Response Definition, Week 48 (N = 28), %",[1]; sBA ≥90% Reduction,(3.6%)
same,"ItchRO(Obs) Weekly Morning Average Score, Average Change from Baseline",[1]; sBA ≥90% Reduction,−2.71
same,CSS final average score,"[1]; week 48, all participants",about 1.5
same,multi-parameter responders among mild PFIC 2 patients,[2]; 280 μg/kg QD,1 of 7
same,moderate PFIC 2 patients responsive only at the higher dose (high-dose responder),[2]; 280 μg/kg twice daily,1 of 12
same,responders among moderate PFIC 2 patients,[2]; 280 μg/kg/day by week 48,5 of 12
same,Multi-parameter Responders (%),[2]; Mild PFIC 2 (N = 7),(14.3%)
